Results: patent US6355799B1, “Substituted benzene compounds, process for their preparation, and herbicidal and defoliant compositions containing them” (ISK Americas Incorporated, priority 1997, dated 2002)

Columns and labels:
Type in all cases: in vivo
[1] = tested on: redroot pigweed (Amaranthus retroflexus, AMARE); test: Pre-emerge test, greenhouse herbicide activity screening; settings: pre-emerge, rated 14 days after application, 0 = no damage, 100 = complete death
How it was run: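 Rating: 0–100 visual injury, 14 DAA. Application: acetone, 187 l/ha, 15–1000 g ai/ha, flat-fan track sprayer with nozzle 40–45 cm above soil or canopy. Post-emerge runs used 0.25% v/v surfactant on 2–3 leaf plants.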

[2] = tested on: barnyardgrass (Echinochloa crus-galli, ECHCG); test: Post-emerge test, greenhouse herbicide activity screening; settings: phytotoxicity rating 0-100 (0 no damage, 100 complete death), 14 days after application
How it was run: (§1)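 Visual ratings on a 0-100 scale (0 no damage, 100 all plants dead) were taken at 14 days after treatment. Rates of 15-1000 g ai/ha in acetone, 187 l/ha, were sprayed onto soil one day after planting (pre-emerge) or onto 2-3 leaf plants with 0.25% v/v surfactant (post-emerge).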

[3] = tested on: ivyleaf morningglory (Ipomoea hederacea, IPOHE); test: as above; settings: phytotoxicity rating 0-100 (0 no damage, 100 complete death), 14 days after application
How it was run: as §1

[4] = tested on: johnsongrass (Sorghum halepense, SORHA); test: as above; settings: phytotoxicity rating 0-100 (0 no damage, 100 complete death), 14 days after application
How it was run: as §1

[5] = tested on: redroot pigweed (Amaranthus retroflexus, AMARE); test: as above; settings: phytotoxicity rating 0-100 (0 no damage, 100 complete death), 14 days after application
How it was run: as §1

[6] = tested on: large crabgrass (Digitaria sanguinalis, DIGSA); test: as above; settings: phytotoxicity rating 0-100 (0 no damage, 100 complete death), 14 days after application
How it was run: as §1

[7] = tested on: green foxtail (Setaria viridis, SETVI); test: as above; settings: phytotoxicity rating 0-100 (0 no damage, 100 complete death), 14 days after application
How it was run: as §1

[8] = tested on: lambsquarters (Chenopodium album, CHEAL); test: as above; settings: phytotoxicity rating 0-100 (0 no damage, 100 complete death), 14 days after application
How it was run: as §1

[9] = tested on: common ragweed (Ambrosia artemisizfolia L., AMBEL); test: as above; settings: phytotoxicity rating 0-100 (0 no damage, 100 complete death), 14 days after application
How it was run: as §1

[10] = tested on: sicklepod (Cassia obtusifolia, CASOB); test: as above; settings: phytotoxicity rating 0-100 (0 no damage, 100 complete death), 14 days after application
How it was run: as §1

[11] = tested on: velvetleaf (Abutilon theophrasti, ABUTH); test: as above; settings: phytotoxicity rating 0-100 (0 no damage, 100 complete death), 14 days after application
How it was run: as §1

[12] = tested on: upland rice (Oryza sp., var. Tebonnet, RICE); test: Post-emerge test, crop safety; settings: phytotoxicity rating 0-100 (0 no damage, 100 complete death), 14 days after application
How it was run: (§2)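 Each test used a mechanized track sprayer delivering 187 l/ha of acetone solution at 15–1000 g ai/ha. Post-emerge foliage at 2–3 leaves was treated with added 0.25% v/v non-ionic surfactant and bottom-watered only. Injury was assessed on day 14, where 100 means total kill.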

[13] = tested on: field corn (Zea mays L., var. Dekalb 535, CORN); test: Post-emerge test, crop safety; settings: phytotoxicity rating 0-100 (0 no damage, 100 complete death), 14 days after application
How it was run: as §2

[14] = tested on: upland rice (Oryza sp., var. Tebonnet, RICE); test: Pre-emerge test, crop safety; settings: pre-emerge, rated 14 days after application, 0 = no damage, 100 = complete death
How it was run: as §1

[15] = tested on: field corn (Zea mays L., var. Dekalb 535, CORN); test: Pre-emerge test, crop safety; settings: pre-emerge, rated 14 days after application, 0 = no damage, 100 = complete death
How it was run: as §1

[16] = tested on: barnyardgrass (Echinochloa crus-galli, ECHCG); test: Pre-emerge test, greenhouse herbicide activity screening; settings: pre-emerge, rated 14 days after application, 0 = no damage, 100 = complete death
How it was run: (§3)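 Plants grown in 10 cm pots of sandy loam mix received acetone-dissolved compounds through a moving flat-fan nozzle. Doses ranged from 15 to 1000 g ai/ha. Pre-emerge pots were seeded one day earlier, post-emerge pots 8–21 days earlier. Fourteen days on, each pot was graded 0–100 for damage.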

[17] = tested on: ivyleaf morningglory (Ipomoea hederacea, IPOHE); test: as above; settings: pre-emerge, rated 14 days after application, 0 = no damage, 100 = complete death
How it was run: as §3

[18] = tested on: johnsongrass (Sorghum halepense, SORHA); test: as above; settings: pre-emerge, rated 14 days after application, 0 = no damage, 100 = complete death
How it was run: as §3

[19] = tested on: large crabgrass (Digitaria sanguinalis, DIGSA); test: as above; settings: pre-emerge, rated 14 days after application, 0 = no damage, 100 = complete death
How it was run: as §3

[20] = tested on: green foxtail (Setaria viridis, SETVI); test: as above; settings: pre-emerge, rated 14 days after application, 0 = no damage, 100 = complete death
How it was run: as §3

[21] = tested on: lambsquarters (Chenopodium album, CHEAL); test: as above; settings: pre-emerge, rated 14 days after application, 0 = no damage, 100 = complete death
How it was run: as §3

[22] = tested on: common ragweed (Ambrosia artemisizfolia L., AMBEL); test: as above; settings: pre-emerge, rated 14 days after application, 0 = no damage, 100 = complete death
How it was run: as §3

[23] = tested on: sicklepod (Cassia obtusifolia, CASOB); test: as above; settings: pre-emerge, rated 14 days after application, 0 = no damage, 100 = complete death
How it was run: as §3

[24] = tested on: velvetleaf (Abutilon theophrasti, ABUTH); test: as above; settings: pre-emerge, rated 14 days after application, 0 = no damage, 100 = complete death
How it was run: as §3

SMILES: COC(=O)C(=O)Nc1c(OC)c(Cl)cc(F)c1-n1c(=O)cc(C(F)(F)F)n(C)c1=O [2-15]
- Pre-emerge Herbicidal Activity AMARE (phytotoxicity rating, scale 0-100) ([1]; 63 g ai/ha): 0
- Pre-emerge Herbicidal Activity AMARE (phytotoxicity rating, scale 0-100) ([1]; 250 g ai/ha): 80
- Post-emerge Herbicidal Activity ECHCG ([2]; 63 g ai/ha): 0
- Post-emerge Herbicidal Activity ECHCG ([2]; 250 g ai/ha): 0
- Post-emerge Herbicidal Activity IPOHE ([3]; 63 g ai/ha): 40
- Post-emerge Herbicidal Activity IPOHE ([3]; 250 g ai/ha): 90
- Post-emerge Herbicidal Activity SORHA ([4]; 63 g ai/ha): 0
- Post-emerge Herbicidal Activity SORHA ([4]; 250 g ai/ha): 0
- Post-emerge Herbicidal Activity AMARE ([5]; 63 g ai/ha): 0
- Post-emerge Herbicidal Activity AMARE ([5]; 250 g ai/ha): 20
- Post-emerge Herbicidal Activity DIGSA ([6]; 63 g ai/ha): 0
- Post-emerge Herbicidal Activity DIGSA ([6]; 250 g ai/ha): 0
- Post-emerge Herbicidal Activity SETVI ([7]; 63 g ai/ha): 0
- Post-emerge Herbicidal Activity SETVI ([7]; 250 g ai/ha): 0
- Post-emerge Herbicidal Activity CHEAL ([8]; 63 g ai/ha): 40
- Post-emerge Herbicidal Activity CHEAL ([8]; 250 g ai/ha): 60
- Post-emerge Herbicidal Activity AMBEL ([9]; 63 g ai/ha): 10
- Post-emerge Herbicidal Activity AMBEL ([9]; 250 g ai/ha): 40
- Post-emerge Herbicidal Activity CASOB ([10]; 63 g ai/ha): 10
- Post-emerge Herbicidal Activity CASOB ([10]; 250 g ai/ha): 10
- Post-emerge Herbicidal Activity ABUTH ([11]; 63 g ai/ha): 70
- Post-emerge Herbicidal Activity ABUTH ([11]; 250 g ai/ha): 90
- Post-emerge Herbicidal Activity RICE (crop damage) ([12]; 63 g ai/ha): 0
- Post-emerge Herbicidal Activity RICE (crop damage) ([12]; 250 g ai/ha): 0
- Post-emerge Herbicidal Activity CORN (crop damage) ([13]; 63 g ai/ha): 0
- Post-emerge Herbicidal Activity CORN (crop damage) ([13]; 250 g ai/ha): 0
- Pre-emerge crop damage RICE (phytotoxicity rating, scale 0-100) ([14]; 63 g ai/ha): 10
- Pre-emerge crop damage RICE (phytotoxicity rating, scale 0-100) ([14]; 250 g ai/ha): 0
- Pre-emerge crop damage CORN (phytotoxicity rating, scale 0-100) ([15]; 63 g ai/ha): 0
- Pre-emerge crop damage CORN (phytotoxicity rating, scale 0-100) ([15]; 250 g ai/ha): 0
- Pre-emerge Herbicidal Activity ECHCG (phytotoxicity rating, scale 0-100) ([16]; 63 g ai/ha): 0
- Pre-emerge Herbicidal Activity ECHCG (phytotoxicity rating, scale 0-100) ([16]; 250 g ai/ha): 0
- Pre-emerge Herbicidal Activity IPOHE (phytotoxicity rating, scale 0-100) ([17]; 63 g ai/ha): 20
- Pre-emerge Herbicidal Activity IPOHE (phytotoxicity rating, scale 0-100) ([17]; 250 g ai/ha): 30
- Pre-emerge Herbicidal Activity SORHA (phytotoxicity rating, scale 0-100) ([18]; 63 g ai/ha): 0
- Pre-emerge Herbicidal Activity SORHA (phytotoxicity rating, scale 0-100) ([18]; 250 g ai/ha): 0
- Pre-emerge Herbicidal Activity DIGSA (phytotoxicity rating, scale 0-100) ([19]; 63 g ai/ha): 0
- Pre-emerge Herbicidal Activity DIGSA (phytotoxicity rating, scale 0-100) ([19]; 250 g ai/ha): 0
- Pre-emerge Herbicidal Activity SETVI (phytotoxicity rating, scale 0-100) ([20]; 63 g ai/ha): 0
- Pre-emerge Herbicidal Activity SETVI (phytotoxicity rating, scale 0-100) ([20]; 250 g ai/ha): 0
- Pre-emerge Herbicidal Activity CHEAL (phytotoxicity rating, scale 0-100) ([21]; 63 g ai/ha): 60
- Pre-emerge Herbicidal Activity CHEAL (phytotoxicity rating, scale 0-100) ([21]; 250 g ai/ha): 40
- Pre-emerge Herbicidal Activity AMBEL (phytotoxicity rating, scale 0-100) ([22]; 63 g ai/ha): 0
- Pre-emerge Herbicidal Activity AMBEL (phytotoxicity rating, scale 0-100) ([22]; 250 g ai/ha): 0
- Pre-emerge Herbicidal Activity CASOB (phytotoxicity rating, scale 0-100) ([23]; 63 g ai/ha): 0
- Pre-emerge Herbicidal Activity CASOB (phytotoxicity rating, scale 0-100) ([23]; 250 g ai/ha): 0
- Pre-emerge Herbicidal Activity ABUTH (phytotoxicity rating, scale 0-100) ([24]; 63 g ai/ha): 20
- Pre-emerge Herbicidal Activity ABUTH (phytotoxicity rating, scale 0-100) ([24]; 250 g ai/ha): 90
